One block for each compound: values may come before it.
Target: T1, GRK6, recombinant full-length GST-tagged human protein (Homo sapiens, UniProt P43250)
T1 construct: Enzyme: 20 nM GRK6, recombinant full-length GST-tagged human protein; GST
Assay: GRK6 assay, IC50 determination (8-point concentration-response)
Type: biochemical
Procedure: The following assay conditions were used.
Buffer: 50 mM TRIS-HCl, pH 7.5, 5 mM MgCl2, 2 mM DTT, 0.01% Triton X-100, 10 μM Na3VO4, 10 μM b-GP, 1% DMSO
Enzyme: 20 nM GRK6, recombinant full-length GST-tagged human protein
Peptide substrate (Peptide 216): 1 μM
One hundred two compounds (1-1-1-102) were further characterized by determining IC50 values in a GRK6 assay. This screen has been previously described in WO 2013/063458, which is incorporated by reference in its entirety herein. Briefly, the following activities were performed: 8-point concentration-response determinations in singlicate wells (top concentration=60 μM, 3-fold dilution steps); Repeat tests for QC failed or inconclusive compounds; and Repeat tests (titrate down) for compounds with >50% inhibition at all tested concentrations.
Twelve compounds (2-1-2-12) were further characterized by determining the IC50 values in a GRK6 assay. This screen has been previously described in WO 2013/063458, which is incorporated by reference in its entirety herein. Specific activities were performed as described above (Example 18).
Thirty-six compounds (3-1-3-36) were further characterized by determining the IC50 values in a GRK6 assay. This screen has been previously described in WO 2013/063458, which is incorporated by reference in its entirety herein. Specific activities were performed as described above (Example 18).
Fifty-four compounds (4-1-4-54) were further characterized by determining the IC50 values in a GRK6 assay. This screen has been previously described in WO 2013/063458, which is incorporated by reference in its entirety herein. Specific activities were performed as described above (Example 18).

[1] = Series 4 (Table 14), conditions as Example 18
[2] = Series 3 (Table 13), conditions as Example 18
[3] = Series 1 (Table 11), 20 nM GRK6, ATP 12 μM (Km), Peptide 216 1 μM, incubation 7 h
[4] = Series 2 (Table 12), conditions as Example 18

T1 sequence (P43250 whole entry): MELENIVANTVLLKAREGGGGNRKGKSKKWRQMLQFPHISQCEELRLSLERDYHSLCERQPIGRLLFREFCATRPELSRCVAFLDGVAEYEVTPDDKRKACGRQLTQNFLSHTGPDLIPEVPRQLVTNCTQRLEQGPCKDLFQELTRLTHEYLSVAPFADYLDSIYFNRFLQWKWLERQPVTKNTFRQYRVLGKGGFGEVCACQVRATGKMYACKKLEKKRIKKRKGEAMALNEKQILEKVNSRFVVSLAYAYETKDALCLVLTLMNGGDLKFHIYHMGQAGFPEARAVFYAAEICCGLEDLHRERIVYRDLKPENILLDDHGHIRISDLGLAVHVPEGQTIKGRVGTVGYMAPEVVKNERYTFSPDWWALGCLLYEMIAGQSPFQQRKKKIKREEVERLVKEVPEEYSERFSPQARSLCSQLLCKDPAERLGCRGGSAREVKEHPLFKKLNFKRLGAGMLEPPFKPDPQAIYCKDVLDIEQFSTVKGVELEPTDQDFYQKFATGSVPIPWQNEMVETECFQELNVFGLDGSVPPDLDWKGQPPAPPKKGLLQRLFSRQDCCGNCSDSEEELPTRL

IC50 [1]: > 100000 nM
SMILES: COc1ccc2cc(-c3[nH]nc(SCC(=O)O)c3Br)ccc2c1 [Compound 4-53]

IC50 [2]: 667 nM
SMILES: c1cnc2ccc(-c3ccc(-c4nnc(SCc5nnn[nH]5)[nH]4)o3)cc2c1 [Compound 3-3]

IC50 [3]: 167 nM
SMILES: N#Cc1ccc(COc2cccc(-c3ccc(-c4nnc(SCC(=O)O)[nH]4)o3)c2)cc1 [Compound 1-7]

IC50 [2]: 6900 nM
SMILES: Fc1ccc(-c2ccc(-c3nnc(SCc4nnn[nH]4)[nH]3)o2)cc1F [Compound 3-29]

IC50 [3]: 635 nM
SMILES: Cn1ccc2cc(-c3ccc(-c4nnc(SCC(=O)O)[nH]4)o3)ccc21 [Compound 1-61]

IC50 [3]: 265 nM
SMILES: O=C(O)CSc1nnc(-c2ccc(-c3cccc(OC(F)(F)F)c3)o2)[nH]1 [Compound 1-21]

IC50 [4]: 309 nM
SMILES: COc1cc(Cl)cc(-c2ccc(-c3cc(SCC(=O)O)n[nH]3)o2)c1 [Compound 2-1]

IC50 [1]: > 100000 nM
SMILES: NC(=O)Cn1cc(-c2nnc(SCC(=O)O)[nH]2)c2ccccc21 [Compound 4-39]

IC50 [3]: 1170 nM
SMILES: CC(C)CCn1ccc(-c2ccc(-c3nnc(SCC(=O)O)[nH]3)o2)n1 [Compound 1-78]

IC50 [4]: 1250 nM
SMILES: Cn1c2ccccc2c2ccc(-c3ccc(-c4cc(SCC(=O)O)n[nH]4)o3)cc21 [Compound 2-8]

IC50 [4]: 626 nM
SMILES: COc1ccc2cc(C#Cc3ccc(-c4cc(SCC(=O)O)n[nH]4)o3)ccc2c1 [Compound 2-5]

IC50 [1]: > 100000 nM
SMILES: Cc1noc(C)c1-c1nnc(SCC(=O)O)[nH]1 [Compound 4-40]

IC50 [3]: 216 nM
SMILES: Cn1ccc2ccc(-c3ccc(-c4nnc(SCC(=O)O)[nH]4)o3)cc21 [Compound 1-14]

IC50 [1]: 78700 nM
SMILES: O=C(O)CSc1nnc(-c2ccc(F)cn2)[nH]1 [Compound 4-35]

IC50 [3]: 3310 nM
SMILES: Cc1nn(C)cc1-c1ccc(-c2nnc(SCC(=O)O)[nH]2)o1 [Compound 1-96]

IC50 [3]: 497 nM
SMILES: CCOc1ccc(-c2ccc(-c3nnc(SCC(=O)O)[nH]3)o2)cc1Cl [Compound 1-51]

IC50 [3]: 1410 nM
SMILES: Nc1cccc(-c2ccc(-c3nnc(SCC(=O)O)[nH]3)o2)c1 [Compound 1-83]

IC50 [1]: 31200 nM
SMILES: CSc1nc(-c2nnc(SCC(=O)O)[nH]2)ccc1C#N [Compound 4-31]

IC50 [4]: 18300 nM
SMILES: O=C(O)CSc1cc(-c2ccccc2)[nH]n1 [Compound 2-12, 2-[(5-phenyl-1H-pyrazol-3-yl)sulfanyl]acetic acid]

IC50 [1]: 595 nM
SMILES: O=C(O)CSc1nnc(-c2ccc(-c3cc(Cl)cc(Cl)c3)s2)[nH]1 [Compound 4-1]

IC50 [3]: 332 nM
SMILES: N#Cc1c[nH]c2cc(-c3ccc(-c4nnc(SCC(=O)O)[nH]4)o3)ccc12 [Compound 1-33]

IC50 [1]: 6540 nM
SMILES: O=C(O)CSc1nnc(-c2ccc(-c3ccccn3)s2)[nH]1 [Compound 4-16]

IC50 [2]: 16900 nM
SMILES: Cc1cccc(-c2nnc(SCc3nnn[nH]3)[nH]2)c1 [Compound 3-35, 5-(((5-(m-tolyl)-1H-1,2,4-triazol-3-yl)thio)methyl)-1H-tetrazole]

IC50 [3]: 828 nM
SMILES: Cc1cc2cc(-c3ccc(-c4nnc(SCC(=O)O)[nH]4)o3)ccc2n1C [Compound 1-69]

IC50 [3]: 616 nM
SMILES: O=C(O)CSc1nnc(-c2ccc(-c3cccc(OCc4ccc(Cl)c(C(F)(F)F)c4)c3)o2)[nH]1 [Compound 1-58]

IC50 [2]: 1270 nM
SMILES: c1cc2cc(-c3ccc(-c4nnc(SCc5nnn[nH]5)[nH]4)o3)ccc2[nH]1 [Compound 3-8]

IC50 [1]: 35300 nM
SMILES: O=C(O)CSc1nnc(-c2ccc(Cl)cn2)[nH]1 [Compound 4-33]

IC50 [2]: 5630 nM
SMILES: Fc1cccc(-c2ccc(-c3nnc(SCc4nnn[nH]4)[nH]3)o2)c1 [Compound 3-27]

IC50 [2]: 8910 nM
SMILES: N#Cc1ccc(-c2ccc(-c3nnc(SCc4nnn[nH]4)[nH]3)o2)cc1 [Compound 3-33]

IC50 [1]: > 100000 nM
SMILES: O=C(O)CSc1nnc(-c2c[nH]c3ccccc23)[nH]1 [Compound 4-49]

IC50 [1]: 12900 nM
SMILES: COc1cncc(-c2nnc(SCC(=O)O)[nH]2)c1 [Compound 4-24]

IC50 [1]: 13000 nM
SMILES: COc1ccc(-c2nnc(SCC(=O)O)[nH]2)cn1 [Compound 4-26]

IC50 [3]: 259 nM
SMILES: O=C(O)CSc1nnc(-c2ccc(C#Cc3ccc4ccccc4c3)o2)[nH]1 [Compound 1-19, 2-((5-(5-(naphthalen-2-ylethynyl)furan-2-yl)-4H-1,2,4-triazol-3-yl)thio)acetic acid]

IC50 [2]: 3810 nM
SMILES: CC(=O)Nc1cccc(-c2ccc(-c3nnc(SCc4nnn[nH]4)[nH]3)o2)c1 [Compound 3-23]

IC50 [1]: 82700 nM
SMILES: CCc1nc(C)c(-c2nnc(SCC(=O)O)[nH]2)[nH]1 [Compound 4-36]

IC50 [4]: 788 nM
SMILES: O=C(O)CSc1cc(-c2ccc(-c3ccc4ccccc4c3)s2)[nH]n1 [Compound 2-7]

IC50 [1]: 4640 nM
SMILES: Nc1ncc(-c2nnc(SCC(=O)O)[nH]2)s1 [Compound 4-13]

IC50 [2]: 2340 nM
SMILES: c1cnc2c(-c3ccc(-c4nnc(SCc5nnn[nH]5)[nH]4)o3)cccc2c1 [Compound 3-14]

IC50 [1]: 2580 nM
SMILES: O=C(O)CSc1nnc(-c2cc3ccccc3s2)[nH]1 [Compound 4-8]

IC50 [3]: 341 nM
SMILES: CCCOc1cccc(-c2ccc(-c3nnc(SCC(=O)O)[nH]3)o2)c1 [Compound 1-34]

IC50 [3]: 1570 nM
SMILES: O=C(O)CSc1nnc(-c2cc3ccccc3o2)[nH]1 [Compound 1-86]

IC50 [2]: 545 nM
SMILES: Clc1cc(Cl)cc(-c2ccc(-c3nnc(SCc4nnn[nH]4)[nH]3)o2)c1 [Compound 3-2]

IC50 [3]: 516 nM
SMILES: COc1ccc(-c2ccc(-c3nnc(SCC(=O)O)[nH]3)o2)cc1OCc1ccccc1 [Compound 1-54]

IC50 [3]: 1440 nM
SMILES: O=C(O)CSc1nnc(-c2ccc(-c3ccccc3Cl)o2)[nH]1 [Compound 1-85]

IC50 [3]: 563 nM
SMILES: O=C(O)CSc1nnc(-c2ccc(-c3c[nH]c4ccccc34)o2)[nH]1 [Compound 1-55]

IC50 [1]: 3640 nM
SMILES: O=C(O)CSc1nnc(-c2cnc(-c3ccccc3)s2)[nH]1 [Compound 4-11]

IC50 [3]: 1020 nM
SMILES: CCOC(=O)c1ccc(-c2ccc(-c3nnc(SCC(=O)O)[nH]3)o2)cc1 [Compound 1-74]

IC50 [3]: 6200 nM
SMILES: O=C(O)CSc1nnc(-c2ccc(-c3cnn(CCN4CCOCC4)c3)o2)[nH]1 [Compound 1-100]

IC50 [4]: 475 nM
SMILES: O=C(O)CSc1cc(-c2ccc(-c3ccc(Cl)c(Cl)c3)o2)[nH]n1 [Compound 2-3]

IC50 [3]: 630 nM
SMILES: O=C(O)CSc1nnc(-c2ccc(-c3cccc(OCc4ccc(C(F)(F)F)cc4)c3)o2)[nH]1 [Compound 1-60]

IC50 [2]: 7450 nM
SMILES: CS(=O)(=O)c1cccc(-c2ccc(-c3nnc(SCc4nnn[nH]4)[nH]3)o2)c1 [Compound 3-31]

IC50 [2]: 2550 nM
SMILES: FC(F)(F)c1cccc(-c2ccc(-c3nnc(SCc4nnn[nH]4)[nH]3)o2)c1 [Compound 3-16]

IC50 [2]: 3830 nM
SMILES: Fc1cc(-c2ccc(-c3nnc(SCc4nnn[nH]4)[nH]3)o2)cc(F)c1F [Compound 3-24]

IC50 [3]: 505 nM
SMILES: O=C(O)CSc1nnc(-c2ccc(-c3cccc(OCc4cccc(C(F)(F)F)c4)c3)o2)[nH]1 [Compound 1-52]

IC50 [3]: 175 nM
SMILES: O=C(O)CSc1nnc(-c2ccc(-c3ccc(Cl)c(Cl)c3)o2)[nH]1 [Compound 1-9]

IC50 [3]: 162 nM
SMILES: N#Cc1cccc(COc2cccc(-c3ccc(-c4nnc(SCC(=O)O)[nH]4)o3)c2)c1 [Compound 1-6]

IC50 [4]: 721 nM
SMILES: COc1ccc2cc(-c3ccc(-c4cc(SCC(=O)O)n[nH]4)s3)ccc2c1 [Compound 2-6]

Source: patent publication US9902739B2, “Small molecule inhibitors of G protein coupled receptor 6 kinases polypeptides” (Mayo Foundation for Medical Education and Research, priority 2014, dated 2018)
